We go through five molecules from US20050113349A1, “2-Alpha vitamin D derivatives having substituents” (Hiroaki TAKAYAMA, priority 1999, published 2005).

The target in the experiment is T1, Vitamin D Receptor (VDR) (Bos taurus, UniProt Q28037).
T1 construct: Bovine thymus 1α,25-dihydroxyvitamin D3 receptor was purchased; purchased YAMASA SHOYU KABUSHIKI KAISHA lot.110431; host or cells: bovine thymus (tissue preparation)
T1 sequence (Q28037 1-426): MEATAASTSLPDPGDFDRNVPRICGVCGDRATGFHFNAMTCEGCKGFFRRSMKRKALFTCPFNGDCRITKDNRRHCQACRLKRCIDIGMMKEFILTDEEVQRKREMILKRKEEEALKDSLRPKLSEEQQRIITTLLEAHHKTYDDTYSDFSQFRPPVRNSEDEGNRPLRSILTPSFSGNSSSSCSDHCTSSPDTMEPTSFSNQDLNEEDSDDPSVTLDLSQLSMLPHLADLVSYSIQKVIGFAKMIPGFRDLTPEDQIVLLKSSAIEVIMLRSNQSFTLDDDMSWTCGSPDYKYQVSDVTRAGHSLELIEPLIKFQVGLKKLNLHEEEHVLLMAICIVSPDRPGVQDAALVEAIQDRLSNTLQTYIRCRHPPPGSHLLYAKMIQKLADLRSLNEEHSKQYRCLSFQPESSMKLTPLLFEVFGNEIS
The experiment is described as follows: Assay for binding to vitamin D receptor (VDR), displacement of [3H]-1α,25-dihydroxyvitamin D3. As to conditions: relative value with that of 1α,25-dihydroxyvitamin D3 taken as 100; bovine thymus receptor; [3H]-1α,25-dihydroxyvitamin D3 0.1 nM; overnight at 4° C. The method, then:
Assay for Binding to Vitamin D Receptor (VDR)
Bovine thymus 1α,25-dihydroxyvitamin D3 receptor was purchased from YAMASA SHOYU KABUSHIKI KAISHA (lot.110431) and 1 ampule (approximately 25 mg) of the receptor was dissolved in 55 mL of 0.05 M phosphate 0.5M potassium buffer (pH 7.4) just before use. Ethanol solutions (50 μl) of 1α,25-dihydroxyvitamin D3 and Compounds 31-35 of the present invention at various concentrations were prepared, mixed with aliquots (500 μl, 0.23 mg protein) of the receptor solution and pre-incubated at room temperature for 1 hour. To the resultant mixtures, [^3H]-1α,25-dihydroxyvitamin D3 was added at the final concentration of 0.1 nM, followed by incubation overnight at 4° C.
The reaction mixtures were treated with dextran coated charcoal for 30 minutes at 4° C. to separate the bound and free forms of [^3H]-1α,25-dihydroxyvitamin D3, and centrifuged at 3000 rpm for ten minutes. Each of the resultant supernatants (500 μl) was mixed with ACS-II (9.5 ml) (AMERSHAM, England) for radioactivity measurement.
The binding properties of Compounds 31-35 of the present invention were expressed in relative values with that of 1α,25-dihydroxyvitamin D3 taken as 100.
In general terms: In a radioligand displacement assay an active substance lowers the binding of a labelled ligand.
“(5Z,7E)-(1S,2S,3R,20R)-9,10-seco-5,7,10(19)-cholestatriene-2-hydroxymethyl-1,3,25-triol [Compound 31]”: the Binding property came to 20.

Turning to `C=C1/C(=C\C=C2/CCC[C@]3(C)[C@@H]([C@H](C)CCCC(C)(C)O)CC[C@@H]23)C[C@@H](O)[C@H](CC)[C@@H]1O` [Compound 34, (5Z,7E)-(1S,2S,3R,20R)-9,10-seco-5,7,10(19)-cholestatriene-2-ethyl-1,3,25-triol], the Binding property is reported as 40.

For `C=C1C(=CC=C2CCCC3(C)C2CCC3C(C)CCCC(C)(C)O)CC(O)C(CCO)C1O` [Compound 32, (5Z,7E)-(1S,2S,3R,20R)-9,10-seco-5,7,10(19)-cholestatriene-2-(2′-hydroxyethyl)-1,3,25-triol], the Binding property stood at 70.

“(5Z,7E)-(1S,2S,3R,20R)-9,10-seco-5,7,10(19)-cholestatriene-2-(3′-hydroxypropyl)-1,3,25-triol [Compound 33]” had a Binding property of 300.

With `C=C1C(=CC=C2CCCC3(C)C2CCC3C(C)CCCC(C)(C)O)CC(O)C(CCC)C1O` [Compound 35, (5Z,7E)-(1S,2S,3R,20R)-9,10-seco-5,7,10(19)-cholestatriene-2-propyl-1,3,25-triol], the Binding property is on record as 20.
